These results are taken from patent US12551532B2, “Long-acting amylin receptor agonists and uses thereof” (Eli Lilly and Company, priority 2021, dated 2026).

Starred links: 1 amine or outer side, 2 acyl side, 3 side chain; linkers in the order of their positions; H or OH if unused. Non-standard residues stand in square brackets, D forms with d. Groups on a side chain read outwards from the residue. *: point of attachment. C20 diacid = O=C(O)CCCCCCCCCCCCCCCCCCC(=O)*; γGlu = O=C(O)[C@H](CCC(=O)[*:2])N[*:1]; AEEA = NCCOCCOCC(=O)O; Aib = CC(C)(N)C(=O)O

A short description of data set [1]: DIO rats: Compound II alone and in combination with incretin compounds. It counts as in vivo, Long Evans rats. Here is the method: This study is conducted to investigate the effect of Compound II for diabetes and/or obesity conditions in DIO rats when administered in combination with other incretin compounds, including a GLP-1 agonist (Compound XVII), oxyntomodulin analog (Compound XVIII), and a triagonist of glucagon, GLP-1, and GIP (Compound XIX). Diet-induced obese (DIO) male Long Evans (Envigo) rats, maintained on a calorie rich diet since arrival at Lilly (TD95217; Teklad, Madison, WI), are used in the following studies. Animals are individually housed in a temperature-controlled (24° C.) facility with 12-hour light/dark cycle (lights on 2200) and free access to food (TD95217) and water.
The rats are randomized according to their body weight, so that each experimental group of animals would have similar body weight. The body weights range from 529 to 823 grams.
Each group contains five rats. […] SC injections are made on Days 1, 4, 7, 10 and 13. Body weight and food intake are measured daily throughout the study. Absolute changes in body weight are calculated by subtracting the body weight of the same animal prior to the first injection of molecule.
At the end of the study, blood is collected to measure blood glucose and plasma insulin. Blood glucose is measured by AccuChek glucometers (Roche, Indianapolis, IN). Insulin is measured by ELISA (MSD, Rockville, MD).
All data are presented as mean±SEM of 5 animals per group. Statistical analysis is performed using one-way ANOVA, followed by Tukey's multiple comparison test to compare treatment groups to vehicle group or each other. Significant differences are identified at p<0.05.

In data set [2] the test system is CD4+ T cells.
Method: This assay assesses the ability of tested antibodies or tested MAPPS peptides to activate CD4+ T cells by inducing cellular proliferation. CD8+ T cell depleted PBMC's are prepared and labeled with CFSE. Each sample is tested with media control, keyhole limpet haemocyanin (KLH; positive clinical benchmark control), tested antibodies, or tested MAPPS peptides. Cultures are incubated for 7 days. On day 7, samples are analyzed by flow cytometry.
Data set [3] has as its system human dendritic cells. It counts as cell-based. On the procedure:
MAPPS profiles the MHC-II presented peptides on human dendritic cells treated with tested molecules. CD14+ cells, isolated from the PBMCs of normal human donors, are cultured and differentiated into immature DCs by incubation with IL-4 and GM-CSF. On day 4, culture media is replaced with fresh media containing tested molecules. On day 5, LPS is added to transform the cells into mature DCs. On day 6, cells are lysed in RIPA buffer with protease inhibitors. Immunoprecipitation of MHC-II complexes are performed using biotinylated anti-MHC-II antibody coupled to streptavidin beads. The bound complex is eluted and filtered. The isolated MHC-II peptides are analyzed by a mass spectrometer. Peptide identifications are generated by an internal proteomics pipeline using search algorithms with no enzyme and a bovine/human database with test sequences appended to the database. A KNIME workflow is used to process the identification files from the samples. Peptides identified from the test articles are aligned against the parent sequence of the test molecule. The output is used to determine the percentage of donors displaying MHC-II peptides from regions of the test molecule. Compound II, Compound IV, Compound VI, Compound VIII, a compound representative of U.S. Pat. No. 9,023,789 (hereinafter “Compound '789”), and Pramlintide are tested in the MAPPs assay.

Take “H-Aib-QGTFTSDYSKYLDEKKAK((2-[2-(2-Amino-ethoxy)-ethoxy]-acetyl)2-(γGlu)-CO-(CH2)18-CO2H)EFVEWLLEGGPSSG-NH2 (H-H[Aib]QGTFTSDYSKYLDEKKAK([AEEA-AEEA-γGlu-C20 diacid])EFVEWLLEGGPSSG-NH2) [Compound XVIII, oxyntomodulin analog]”: in data set [1] (10 nmol/kg SC Day 1, 4, 7, 10, 13, Day 1 to Day 14, mean±SEM), the “Body Weight Change” value was -50.24 ± 6.36 g. In data set [1] (10 nmol/kg SC every three days, 14-day treatment period, mean±SEM), the “Cumulative Food Intake” value was 165.86 ± 7.45 g.
As to `CC[C@H](C)[C@H](NC(=O)[C@@H]1CCCN1C(=O)CNC(=O)[C@H](Cc1ccccc1)NC(=O)[C@H](CC(N)=O)NC(=O)[C@H](CC(N)=O)NC(=O)[C@H](CO)NC(=O)[C@H](CO)NC(=O)[C@H](Cc1c[nH]cn1)NC(=O)[C@@H](NC(=O)[C@H](CC(C)C)NC(=O)[C@H](Cc1ccccc1)NC(=O)[C@H](CC(N)=O)NC(=O)[C@H](C)NC(=O)[C@H](CC(C)C)NC(=O)[C@H](CCCNC(=N)N)NC(=O)[C@H](CCC(N)=O)NC(=O)[C@@H](NC(=O)[C@H](C)NC(=O)[C@@H]1CSSC[C@H](NC(=O)[C@@H](N)CCCCN)C(=O)N[C@@H](CC(N)=O)C(=O)N[C@@H]([C@@H](C)O)C(=O)N[C@@H](C)C(=O)N[C@@H]([C@@H](C)O)C(=O)N1)[C@@H](C)O)C(C)C)C(=O)N[C@@H](CC(C)C)C(=O)N1CCC[C@H]1C(=O)N1CCC[C@H]1C(=O)N[C@H](C(=O)N[C@@H](CC(N)=O)C(=O)N[C@H](C(=O)NCC(=O)N[C@@H](CO)C(=O)N[C@@H](CC(N)=O)C(=O)N[C@H](C(=O)N[C@@H](Cc1ccc(O)cc1)C(N)=O)[C@@H](C)O)C(C)C)[C@@H](C)O` [Compound XV, reference compound], in data set [2], the “T Cell Proliferation Assay: protein, immunogenicity risk” value is “High Risk” and the “T Cell Proliferation Assay: protein, positive donors” value is “(7/7 positive”. Also, in data set [3], the “MAPPS Assay donors displayed peptides” value is listed as 10/10, the “MAPPS Assay immunogenicity risk” value was “High Risk” and the “peptides displayed on MHC-II complexes” value is “two peptide clusters that in total span residues 1-34”.
